Each compound was assayed against DGKα (Homo sapiens, UniProt P23743) (assay: Human DGKα kinase activity inhibition assay (ADP-Glo)). Conditions: in vitro human DGKα kinase activity inhibition assay.
Format: biochemical
Method in brief: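 C-terminally FLAG-tagged full-length human DGKα from baculovirus/insect cells (typically ~0.1 nM) phosphorylated 1,2-dioleoyl-sn-glycerol in octyl-β-D-glucopyranoside micelles in MOPS pH 7.4. ADP formed was quantified by ADP-Glo luminescence after 1 h ATP depletion at 22 °C.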

Chain of DGKα (P23743 with tags, fused parts or gaps): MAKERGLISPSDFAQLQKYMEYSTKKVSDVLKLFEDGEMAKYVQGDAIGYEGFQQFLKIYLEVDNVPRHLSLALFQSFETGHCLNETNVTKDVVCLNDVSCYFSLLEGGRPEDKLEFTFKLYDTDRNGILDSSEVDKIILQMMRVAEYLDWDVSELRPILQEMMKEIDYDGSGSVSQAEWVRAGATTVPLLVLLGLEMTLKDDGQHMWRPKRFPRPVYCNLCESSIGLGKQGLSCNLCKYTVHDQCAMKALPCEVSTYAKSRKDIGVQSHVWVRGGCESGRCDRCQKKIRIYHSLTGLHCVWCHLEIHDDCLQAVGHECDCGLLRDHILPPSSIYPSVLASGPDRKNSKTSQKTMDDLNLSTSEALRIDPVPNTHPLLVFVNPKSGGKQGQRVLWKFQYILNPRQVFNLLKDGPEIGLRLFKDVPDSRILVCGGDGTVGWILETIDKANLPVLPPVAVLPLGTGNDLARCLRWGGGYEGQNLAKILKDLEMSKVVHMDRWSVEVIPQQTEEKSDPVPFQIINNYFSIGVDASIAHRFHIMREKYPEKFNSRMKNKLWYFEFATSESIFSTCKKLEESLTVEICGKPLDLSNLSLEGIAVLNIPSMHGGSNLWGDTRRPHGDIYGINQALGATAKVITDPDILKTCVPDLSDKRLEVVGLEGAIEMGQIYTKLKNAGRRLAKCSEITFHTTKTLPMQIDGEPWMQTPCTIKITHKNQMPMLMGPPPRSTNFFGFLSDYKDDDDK

Compound	IC50 [nM]
CN1CCN(c2ccc3c(N4CCC(Oc5cccc(Cl)c5)CC4)c(C#N)c(=O)n(C)c3c2)CC1 [Example 80, 4-[4-(3-chlorophenoxy)piperidin-1-yl]-1-methyl-7-(4-methylpiperazin-1-yl)-2-oxo-1,2-dihydroquinoline-3-carbonitrile]	534
Cn1c(=O)c(C#N)c(N2CCC(C)(Oc3ccc([N+](=O)[O-])cc3)CC2)c2ccccc21 [Example 40, 1-methyl-4-[4-methyl-4-(4-nitrophenoxy)piperidin-1-yl]-2-oxo-1,2-dihydroquinoline-3-carbonitrile]	11
CN1CCN(c2ccc(OC3CCN(c4c(C#N)c(=O)n(C)c5ccccc45)CC3)cc2)C1=O [Example 22, 1-methyl-4-{4-[4-(3-methyl-2-oxoimidazolidin-1-yl)phenoxy]piperidin-1-yl}-2-oxo-1,2-dihydroquinoline-3-carbonitrile]	129
COCCc1ccc2c(N3CCC(Oc4cccc(Cl)c4)CC3)c(C#N)c(=O)n(C)c2c1 [Example 74, 4-[4-(3-chlorophenoxy)piperidin-1-yl]-7-(2-methoxyethyl)-1-methyl-2-oxo-1,2-dihydroquinoline-3-carbonitrile]	3.5
Cn1c(=O)c(C#N)c(N2CCC(Cc3ccc(C#N)cc3)CC2)c2ccccc21 [Example 95, 4-{4-[(4-cyanophenyl)methyl]piperidin-1-yl}-1-methyl-2-oxo-1,2-dihydroquinoline-3-carbonitrile]	15
Cn1ccn(-c2ccc(OC3CCN(c4c(C#N)c(=O)n(C)c5ccccc45)CC3)cc2)c1=O [Example 25, 1-methyl-4-{4-[4-(3-methyl-2-oxo-2,3-dihydro-1H-imidazol-1-yl)phenoxy]piperidin-1-yl}-2-oxo-1,2-dihydroquinoline-3-carbonitrile]	283
Cn1c(=O)c(C(N)=O)c(N2CCC(Oc3ccc(OC(F)(F)F)cc3)CC2)c2ccc(Cl)cc21 [Example 98, 7-chloro-1-methyl-2-oxo-4-{4-[4-(trifluoromethoxy)phenoxy]piperidin-1-yl}-1,2-dihydroquinoline-3-carboxamide]	1.9
Cc1ccc2c(c1)c(N1CCC(Oc3ccccc3C)CC1)c(C#N)c(=O)n2C [Example 150, 1,6-dimethyl-4-[4-(2-methylphenoxy)piperidin-1-yl]-2-oxo-1,2-dihydroquinoline-3-carbonitrile]	50
Cn1c(=O)c(C#N)c(N2CCC(Sc3ccccc3)CC2)c2ccc(N3CCCC3=O)cc21 [Example 83, 1-methyl-2-oxo-7-(2-oxopyrrolidin-1-yl)-4-[4-(phenylsulfanyl)piperidin-1-yl]-1,2-dihydroquinoline-3-carbonitrile]	14
Cn1c(=O)c(C#N)c(N2CCC(Oc3ccccc3)CC2)c2ccc(OC3CC3)cc21 [Example 70, 7-(cyclopropyloxy)-1-methyl-2-oxo-4-(4-phenoxypiperidin-1-yl)-1,2-dihydroquinoline-3-carbonitrile]	17
Cc1cccc(COC2CCN(c3c(C#N)c(=O)n(C)c4ccccc34)CC2)c1 [Example 108, 1-methyl-4-{4-[(3-methylphenyl)methoxy]piperidin-1-yl}-2-oxo-1,2-dihydroquinoline-3-carbonitrile]	10
COc1ccc2c(N3CCC(Oc4ccc(Cl)cc4)CC3)c(C#N)c(=O)n(C)c2c1 [Example 65, 4-[4-(4-chlorophenoxy)piperidin-1-yl]-7-methoxy-1-methyl-2-oxo-1,2-dihydroquinoline-3-carbonitrile]	7.3
Cn1c(=O)c(C#N)c(N2CCC(Oc3cccc(F)c3)CC2)c2ccccc21 [Example 7, 4-[4-(3-fluorophenoxy)piperidin-1-yl]-1-methyl-2-oxo-1,2-dihydroquinoline-3-carbonitrile]	8.6
Cn1c(=O)c(C#N)c(N2CCC(Oc3ccc(F)cc3)CC2)c2ccc(Br)cc21 [Example 56, 7-bromo-4-[4-(4-fluorophenoxy)piperidin-1-yl]-1-methyl-2-oxo-1,2-dihydroquinoline-3-carbonitrile]	9.9
Cc1ccccc1COC1CCN(c2c(C(N)=O)c(=O)n(C)c3ccccc23)CC1 [Example 124, 1-methyl-4-{4-[(2-methylphenyl)methoxy]piperidin-1-yl}-2-oxo-1,2-dihydroquinoline-3-carboxamide]	30
Cn1cc(-c2ccc(OC3CCCN(c4c(C#N)c(=O)n(C)c5ccccc45)CC3)cc2)cn1 (racemic) [Example 105, (rac)-1-methyl-4-{4-[4-(1-methyl-1H-pyrazol-4-yl)phenoxy]azepan-1-yl}-2-oxo-1,2-dihydroquinoline-3-carbonitrile]	33
Cn1c(=O)c(C#N)c(N2CCC(Cc3ccccc3)CC2)c2ccccc21 [Example 91, 4-(4-benzylpiperidin-1-yl)-1-methyl-2-oxo-1,2-dihydroquinoline-3-carbonitrile]	4.5
Cn1c(=O)c(C#N)c(N2CCC(Oc3ccc(N4CCOCC4)cc3)CC2)c2ccccc21 [Example 20, 1-methyl-4-{4-[4-(morpholin-4-yl)phenoxy]piperidin-1-yl}-2-oxo-1,2-dihydroquinoline-3-carbonitrile]	81

Compound	IC50 [nM]
Cn1c(=O)c(C#N)c(N2CCC(Oc3ccc(C4CC4)cc3)CC2)c2ccccc21 [Example 37, 4-[4-(4-cyclopropylphenoxy)piperidin-1-yl]-1-methyl-2-oxo-1,2-dihydroquinoline-3-carbonitrile]	10
Cn1c(=O)c(C#N)c(N2CCCC(Oc3ccc(Br)cc3)CC2)c2ccccc21 (racemic) [Example 103, (rac)-4-[4-(4-bromophenoxy)azepan-1-yl]-1-methyl-2-oxo-1,2-dihydroquinoline-3-carbonitrile]	18
Cn1c(=O)c(C#N)c(N2CCC(COc3ccccc3Cl)CC2)c2ccccc21 [Example 120, 4-{4-[(2-chlorophenoxy)methyl]piperidin-1-yl}-1-methyl-2-oxo-1,2-dihydroquinoline-3-carbonitrile]	51
Cn1c(=O)c(C#N)c(N2CCC(OCc3ccc(F)cc3)CC2)c2ccccc21 [Example 110, 4-{4-[(4-fluorophenyl)methoxy]piperidin-1-yl}-1-methyl-2-oxo-1,2-dihydroquinoline-3-carbonitrile]	5.3
Cn1c(=O)c(C#N)c(N2CCC(Oc3ccc(C#N)cc3)CC2)c2ccccc21 [Example 32, 4-[4-(4-cyanophenoxy)piperidin-1-yl]-1-methyl-2-oxo-1,2-dihydroquinoline-3-carbonitrile]	31
Cn1c(=O)c(C#N)c(N2CCC(COc3cccc(Cl)c3)CC2)c2ccccc21 [Example 119, 4-{4-[(3-chlorophenoxy)methyl]piperidin-1-yl}-1-methyl-2-oxo-1,2-dihydroquinoline-3-carbonitrile]	34
CC(OC1CCN(c2c(C#N)c(=O)n(C)c3ccccc23)CC1)c1ccccc1 (racemic) [Example 112, (rac)-1-methyl-2-oxo-4-[4-(1-phenylethoxy)piperidin-1-yl]-1,2-dihydroquinoline-3-carbonitrile]	10
Cn1c(=O)c(C#N)c(N2CCC(Oc3ccccc3C(F)(F)F)CC2)c2ccccc21 [Example 36, 1-methyl-2-oxo-4-{4-[2-(trifluoromethyl)phenoxy]piperidin-1-yl}-1,2-dihydroquinoline-3-carbonitrile]	164
Cn1c(=O)c(C#N)c(N2CCC(Sc3ccccc3)CC2)c2cc(C#N)ccc21 [Example 144, 1-methyl-2-oxo-4-[4-(phenylsulfanyl)piperidin-1-yl]-1,2-dihydroquinoline-3,6-dicarbonitrile]	3
Cn1c(=O)c(C#N)c(N2CCC(Oc3ccc(C(F)(F)F)cc3)CC2)c2ccc(N3CCCC3=O)cc21 [Example 86, 1-methyl-2-oxo-7-(2-oxopyrrolidin-1-yl)-4-{4-[4-(trifluoromethyl)phenoxy]piperidin-1-yl}-1,2-dihydroquinoline-3-carbonitrile]	32
Cn1c(=O)c(C(N)=O)c(N2CCC(Oc3ccc(OC(F)(F)F)cc3)CC2)c2ccccc21 [Example 48, 1-methyl-2-oxo-4-{4-[4-(trifluoromethoxy)phenoxy]piperidin-1-yl}-1,2-dihydroquinoline-3-carboxamide]	0.9
Cn1c(=O)c(C#N)c(N2CCC(Oc3ccc(N4CCCCC4=O)cc3)CC2)c2ccccc21 [Example 23, 1-methyl-2-oxo-4-{4-[4-(2-oxopiperidin-1-yl)phenoxy]piperidin-1-yl}-1,2-dihydroquinoline-3-carbonitrile]	181
Cc1cccc(COC2CCN(c3c(C(N)=O)c(=O)n(C)c4ccccc34)CC2)c1 [Example 123, 1-methyl-4-{4-[(3-methylphenyl)methoxy]piperidin-1-yl}-2-oxo-1,2-dihydroquinoline-3-carboxamide]	14
COc1ccc2c(N3CCC(Oc4ccc(OC(F)(F)F)cc4)CC3)c(C#N)c(=O)n(C)c2c1 [Example 71, 7-methoxy-1-methyl-2-oxo-4-{4-[4-(trifluoromethoxy)phenoxy]piperidin-1-yl}-1,2-dihydroquinoline-3-carbonitrile]	5.7
Cn1c(=O)c(C(N)=O)c(N2CCC(OCc3cccc(F)c3)CC2)c2ccccc21 [Example 128, 4-{4-[(3-fluorophenyl)methoxy]piperidin-1-yl}-1-methyl-2-oxo-1,2-dihydroquinoline-3-carboxamide]	29
Cn1c(=O)c(C#N)c(N2CCC(Oc3cccc(C(F)(F)F)c3)CC2)c2ccccc21 [Example 15, 1-methyl-2-oxo-4-{4-[3-(trifluoromethyl)phenoxy]piperidin-1-yl}-1,2-dihydroquinoline-3-carbonitrile]	14
CCOC(=O)c1ccc(OC2CCN(c3c(C(N)=O)c(=O)n(C)c4ccccc34)CC2)cc1 [Example 51, ethyl 4-{[1-(3-carbamoyl-1-methyl-2-oxo-1,2-dihydroquinolin-4-yl)piperidin-4-yl]oxy}benzoate]	6.1
COc1ccc2c(N3CCC(Oc4ccccc4)CC3)c(C#N)c(=O)n(C)c2c1 [Example 89, 7-methoxy-1-methyl-2-oxo-4-(4-phenoxypiperidin-1-yl)-1,2-dihydroquinoline-3-carbonitrile]	4.7
